Reference: ChEMBL document CHEMBL1201862, “PubChem BioAssay data set” (2004)
Active and inactive are the calls of the source.

Legend:
[1] = AlphaScreen signal interference compounds, dose response, artefact control for ARNT-TACC3 interaction inhibitor project, biochemical, luminescence, cherry-pick (AID 651705); type: functional;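 also: AlphaScreen bead proximity signal that flags compounds interfering with the detection technology; potency reflects signal decrease which marks the compound as an assay artifact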
[2] = Fluorescence-based cell-based high throughput dose response assay for inhibitors of the interaction of nucleotide-binding oligomerization domain containing 2 (NOD2) and the receptor-interacting serine-threonine kinase 2 (RIPK2).; type: functional; details: Homo sapiens
[3] = system: Vero; assay: cells; type: functional; details: Chlorocebus sabaeus
[4] = target: T1, Sentrin-specific protease 8 (Homo sapiens, UniProt Q96LD8); type: functional
T1 sequence (Q96LD8 whole entry): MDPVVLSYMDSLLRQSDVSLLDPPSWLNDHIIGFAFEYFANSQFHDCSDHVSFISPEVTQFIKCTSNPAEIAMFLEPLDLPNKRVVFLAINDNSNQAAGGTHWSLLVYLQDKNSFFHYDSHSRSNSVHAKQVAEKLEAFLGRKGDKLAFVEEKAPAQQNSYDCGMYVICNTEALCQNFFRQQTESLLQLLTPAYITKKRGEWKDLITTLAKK

[5] = target: T1, Sentrin-specific protease 8; type: functional; remark: listed apart in the source
[6] = target: Mu-type opioid receptor (Homo sapiens, UniProt P35372); type: functional, cell-based;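 also: U2OS cells with beta-arrestin recruitment to OPRM1 by beta-gal complementation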
Sequence of Mu-type opioid receptor (P35372 whole entry): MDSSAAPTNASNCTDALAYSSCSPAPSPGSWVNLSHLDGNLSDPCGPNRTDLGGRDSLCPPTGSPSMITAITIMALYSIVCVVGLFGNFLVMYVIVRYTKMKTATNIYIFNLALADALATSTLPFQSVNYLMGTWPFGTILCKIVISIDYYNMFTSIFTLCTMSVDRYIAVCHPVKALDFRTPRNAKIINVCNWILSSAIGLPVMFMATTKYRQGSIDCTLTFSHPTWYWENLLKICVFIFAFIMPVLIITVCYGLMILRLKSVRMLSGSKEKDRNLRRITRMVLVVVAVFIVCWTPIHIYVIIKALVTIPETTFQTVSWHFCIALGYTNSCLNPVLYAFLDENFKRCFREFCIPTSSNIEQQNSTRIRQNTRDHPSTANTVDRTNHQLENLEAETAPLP

[7] = target: 5-hydroxytryptamine receptor 2A (Mus musculus, UniProt P35363); type: functional, cell-based;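 also: CHO-K1 cells with tagged receptor and beta-arrestin; agonist potency measured as compound-induced activation of the receptor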
Sequence of 5-hydroxytryptamine receptor 2A (P35363 whole entry): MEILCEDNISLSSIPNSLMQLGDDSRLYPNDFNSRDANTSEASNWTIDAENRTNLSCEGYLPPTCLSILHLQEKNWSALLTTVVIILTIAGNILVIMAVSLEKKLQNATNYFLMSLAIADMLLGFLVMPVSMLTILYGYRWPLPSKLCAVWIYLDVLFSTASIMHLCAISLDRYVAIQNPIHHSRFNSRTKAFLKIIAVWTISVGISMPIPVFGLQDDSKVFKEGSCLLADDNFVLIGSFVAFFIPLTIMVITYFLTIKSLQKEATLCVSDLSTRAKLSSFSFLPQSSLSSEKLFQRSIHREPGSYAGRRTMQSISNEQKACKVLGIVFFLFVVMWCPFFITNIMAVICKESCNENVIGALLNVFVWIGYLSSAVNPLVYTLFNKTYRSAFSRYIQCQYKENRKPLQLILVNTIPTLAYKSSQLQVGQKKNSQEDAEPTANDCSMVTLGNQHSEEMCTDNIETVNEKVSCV

[8] = target: Adenosylmethionine-8-amino-7-oxononanoate aminotransferase (Mycobacterium tuberculosis, UniProt P9WQ81); assay: Mycobacterium tuberculosis BioA enzyme inhibitor Measured in Biochemical System Using Plate Reader - 2163-02_Inhibitor_Dose_CherryPick_Activity.; type: functional, Mycobacterium tuberculosis UT205
Sequence of Adenosylmethionine-8-amino-7-oxononanoate aminotransferase (P9WQ81 whole entry): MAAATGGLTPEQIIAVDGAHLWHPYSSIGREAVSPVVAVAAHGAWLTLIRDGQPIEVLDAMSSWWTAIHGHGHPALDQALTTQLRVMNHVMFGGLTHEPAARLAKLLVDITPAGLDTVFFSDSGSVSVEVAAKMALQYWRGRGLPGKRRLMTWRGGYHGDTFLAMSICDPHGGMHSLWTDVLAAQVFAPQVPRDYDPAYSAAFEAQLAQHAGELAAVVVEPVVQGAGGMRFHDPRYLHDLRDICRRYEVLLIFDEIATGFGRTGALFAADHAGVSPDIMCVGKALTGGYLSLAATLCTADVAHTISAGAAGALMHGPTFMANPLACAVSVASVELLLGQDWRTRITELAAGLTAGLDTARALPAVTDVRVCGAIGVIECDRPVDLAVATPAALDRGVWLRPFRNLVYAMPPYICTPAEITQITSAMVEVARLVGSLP

[9] = target: T2, Low molecular weight phosphotyrosine protein phosphatase (Homo sapiens, UniProt P24666); type: functional; details: read-out: IC50_Mean
T2 sequence (P24666 whole entry): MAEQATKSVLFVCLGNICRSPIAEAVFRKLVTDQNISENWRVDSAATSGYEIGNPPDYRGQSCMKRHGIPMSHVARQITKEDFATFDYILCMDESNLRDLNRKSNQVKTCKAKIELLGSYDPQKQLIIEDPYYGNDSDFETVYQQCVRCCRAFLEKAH

[10] = target: T2, Low molecular weight phosphotyrosine protein phosphatase; type: functional; details: read-out: IC50_Mean; remark: listed apart in the source

With `O=C(COc1ccccc1)Nc1nnc(-c2ccco2)o1` the AC50 [1] was 95 µM (active).
In the case of `O=C1Nc2ccccc2/C1=C\C(=O)c1ccccc1`, the IC50 [2] is reported as 5 µM (active) and the CC50 [3] is reported as > 25 µM (active).
For `CCOc1cc(C(c2c(C)[nH][nH]c2=O)c2c(C)[nH][nH]c2=O)ccc1OS(=O)(=O)c1ccccc1`, the IC50 [4] was 20.9 µM (active) and the IC50 [5] was 33.2 µM (active).
In the case of `O=C(c1ccco1)N1CCN(CC2CC3C=CC2C3)CC1` (stereo not given), the EC50 [6] is reported as 92.4 µM (inactive) and the EC50 [7] is reported as 2.96 µM (active).
For `CC(=O)c1ccc(NC(=O)COC(=O)Cc2ccsc2)cc1`, the AC50 [8] was 6.97 µM (active).
For `CCc1nc(N)nc(N)c1-c1ccc(Cl)c(N=[N+]=[N-])c1`, the IC50 [9] was 24.2 µM (inactive) and the IC50 [10] was 14.3 µM (active).
